Measurements published in patent publication US10952992B2, “Methods of treating intraocular pressure with activators of Tie-2” (Aerpio Pharmaceuticals, Inc., priority 2015, dated 2021).
Several values for one entry are separate records, joined by “and”; a condition that tells them apart may be missing. Identical values can stand only once.

Columns and labels:
[1] = In vitro diffusion across rabbit cornea and sclera in Franz cell; format: in vitro ADME; settings: 1.5% of the sodium salt with 5% HPβCD in 50:50 D5W:sterile water
[2] = tested on: intraocular pressure in normotensive New Zealand White rabbits; test: Example 3 intraocular pressure after repeated topical and subcutaneous administration (pneumotonometer); format: in vivo; set-up: IOP, individual animal / IOP, group Average: unit not given here
Experimental: To measure the tolerability and effect of Compound 1 (sodium salt) on intraocular pressure following repeated topical and subcutaneous administration, normotensive New Zealand White rabbits were treated with Compound 1 (sodium salt). Animals were acclimated 1 to 2 times per day to the intraocular pressure (IOP) measurement procedures prior to initiation of the study to determine baseline IOP levels. IOP acclimation was performed in the two weeks prior to study start for a total of 5 days. Animals with unacceptable IOP values were excluded from the study. Prior to taking all IOP measurements, 1 to 2 drops of a 0.5% proparacaine solution were applied to the eye as a topical anesthetic. OP measurements were performed with a pneumotonometer. Test and control formulations were administered to the animals once or twice daily topically into both eyes or subcutaneously starting on Day 1 according to TABLE 20 and TABLE 21 below. PM dosing, where applicable, was performed ˜8 hours after AM dosing. IOP measurements were performed twice (AM and PM) at baseline (prior to the start of dosing), twice (AM and PM) on Days 1 and 7, and once daily (AM) on Days 2-6 and Day 8. Prior to taking all IOP measurements, 1 to 2 drops of a 0.5% proparacaine solution were applied to the eye as a topical anesthetic. IOP measurements were performed with a pneumotonometer. AM IOP measurements were performed 2 hours after AM dosing; the only exceptions were Day 8 AM measurements, which were performed 24 hours after the final dose. PM IOP measurements were performed ˜5 hours (baseline and Day 1) or ˜4 hours (Day 7) after AM IOP measurements, prior to PM dosing, with at least 15 minutes elapsing between anesthetic application for PM IOP measurements and PM dosing. The final round of slit-lamp examinations was performed on Day 8.

[3] = Group 2: 0.45 mg/eye topical sodium salt BID, Day 1, AM, OD
[4] = Group 2: 0.45 mg/eye topical sodium salt BID, Day 1, AM, OS
[5] = Group 2: 0.45 mg/eye topical sodium salt BID, Day 1, PM, OD
[6] = Group 2: 0.45 mg/eye topical sodium salt BID, Day 1, PM, OS
[7] = Group 2: 0.45 mg/eye topical sodium salt BID, Day 2, AM, OD
[8] = Group 2: 0.45 mg/eye topical sodium salt BID, Day 2, AM, OS
[9] = Group 2: 0.45 mg/eye topical sodium salt BID, Day 3, AM, OD
[10] = Group 2: 0.45 mg/eye topical sodium salt BID, Day 3, AM, OS
[11] = Group 2: 0.45 mg/eye topical sodium salt BID, Day 4, AM, OD
[12] = Group 2: 0.45 mg/eye topical sodium salt BID, Day 4, AM, OS
[13] = Group 2: 0.45 mg/eye topical sodium salt BID, Day 5, AM, OD
[14] = Group 2: 0.45 mg/eye topical sodium salt BID, Day 5, AM, OS
[15] = Group 3: 1.2 mg/eye topical sodium salt BID, Day 1, AM, OD
[16] = Group 3: 1.2 mg/eye topical sodium salt BID, Day 1, AM, OS
[17] = Group 3: 1.2 mg/eye topical sodium salt BID, Day 1, PM, OD
[18] = Group 3: 1.2 mg/eye topical sodium salt BID, Day 1, PM, OS
[19] = Group 3: 1.2 mg/eye topical sodium salt BID, Day 2, AM, OD
[20] = Group 3: 1.2 mg/eye topical sodium salt BID, Day 2, AM, OS
[21] = Group 3: 1.2 mg/eye topical sodium salt BID, Day 3, AM, OD
[22] = Group 3: 1.2 mg/eye topical sodium salt BID, Day 3, AM, OS
[23] = Group 3: 1.2 mg/eye topical sodium salt BID, Day 4, AM, OD

COC(=O)N[C@@H](Cc1ccccc1)C(=O)N[C@@H](Cc1ccc(NS(=O)(=O)O)cc1)c1csc(-c2cccs2)n1 [Compound 1]
diffusion across rabbit cornea and sclera in Franz cell [1]: substantial diffusion
IOP, group Average [2, 3]: 22.1
IOP, individual animal [2, 3]: 20.3 and 23.7 and 24.0 and 20.7 and 21.7
IOP, group Average [2, 4]: 23.3
IOP, individual animal [2, 4]: 20.7 and 23.3 (2×) and 25.2 and 23.8
IOP, group Average [2, 5]: 25.5
IOP, individual animal [2, 5]: 24.8 (2×) and 29.5 and 22.0 and 26.2
IOP, group Average [2, 6]: 26.1
IOP, individual animal [2, 6]: 24.8 and 24.2 and 28.8 and 25.3 and 27.2
IOP, group Average [2, 7]: 21.9
IOP, individual animal [2, 7]: 22.0 and 22.7 and 25.0 and 18.3 and 21.7
IOP, group Average [2, 8]: 22.2
IOP, individual animal [2, 8]: 21.8 and 22.3 and 24.3 and 20.8 and 21.5
IOP, group Average [2, 9]: 24.0
IOP, individual animal [2, 9]: 25.0 and 24.2 and 26.0 and 20.8 and 23.8
IOP, group Average [2, 10]: 24.5
IOP, individual animal [2, 10]: 25.3 and 23.5 and 26.0 and 23.0 and 24.5
IOP, group Average [2, 11]: 23.9
IOP, individual animal [2, 11]: 23.8 and 22.0 and 26.7 and 21.3 and 25.7
IOP, group Average [2, 12]: 24.3
IOP, individual animal [2, 12]: 23.0 and 22.7 and 26.3 and 23.5 and 26.2
IOP, group Average [2, 13]: 25.2
IOP, individual animal [2, 13]: 28.8 and 22.8 and 28.0 and 20.7 and 25.7
IOP, group Average [2, 14]: 26.5
IOP, individual animal [2, 14]: 28.8 and 25.0 and 28.0 and 24.2 and 26.3
IOP, group Average ([2]; Group 2: 0.45 mg/eye topical sodium salt BID, Day 6, AM, OD): 25.5
IOP, group Average ([2]; Group 2: 0.45 mg/eye topical sodium salt BID, Day 6, AM, OS): 25.4
IOP, group Average ([2]; Group 2: 0.45 mg/eye topical sodium salt BID, Day 7, AM, OD): 23.7
IOP, group Average ([2]; Group 2: 0.45 mg/eye topical sodium salt BID, Day 7, AM, OS): 24.5
IOP, group Average ([2]; Group 2: 0.45 mg/eye topical sodium salt BID, Day 7, PM, OD): 25.1
IOP, group Average ([2]; Group 2: 0.45 mg/eye topical sodium salt BID, Day 7, PM, OS): 25.6
IOP, group Average ([2]; Group 2: 0.45 mg/eye topical sodium salt BID, Day 8, AM (24 hours after final dose), OD): 24.9
IOP, group Average ([2]; Group 2: 0.45 mg/eye topical sodium salt BID, Day 8, AM (24 hours after final dose), OS): 25.1
IOP, group Average [2, 15]: 22.0
IOP, individual animal [2, 15]: 23.2 and 20.7 and 24.0
IOP, group Average [2, 16]: 23.2
IOP, individual animal [2, 16]: 23.8 and 23.0 and 24.7
IOP, group Average [2, 17]: 24.1
IOP, individual animal [2, 17]: 23.8 and 22.7 and 24.7
IOP, group Average [2, 18]: 24.9
IOP, individual animal [2, 18]: 24.5 and 23.7 and 26.8
IOP, group Average [2, 19]: 20.8
IOP, individual animal [2, 19]: 17.5 and 18.5 and 24.3
IOP, group Average [2, 20]: 21.2
IOP, individual animal [2, 20]: 19.3 and 20.2 and 24.0
IOP, group Average [2, 21]: 20.7
IOP, individual animal [2, 21]: 19.2 and 20.0 and 23.0
IOP, group Average [2, 22]: 21.2
IOP, individual animal [2, 22]: 20.0 and 20.8 and 22.7
IOP, group Average [2, 23]: 22.8
IOP, individual animal [2, 23]: 23.2 and 19.8 and 23.8 and 24.8
IOP, group Average ([2]; Group 3: 1.2 mg/eye topical sodium salt BID, Day 4, AM, OS): 23.2
